# Data published in article PMC11053168, “Agonist-selective activation of individual G-proteins by muscarinic receptors” (Scientific Reports, 2024).
# Like-named read-outs stand apart in the source and are kept apart here.
# How the values were obtained:
# M5 muscarinic receptor = target: T1, M5 muscarinic receptor (Homo sapiens, UniProt P08912); assay: [3H]NMS competition binding, membranes from CHO cells expressing M5
# T1 construct: membranes
# T1 sequence (P08912 1-532): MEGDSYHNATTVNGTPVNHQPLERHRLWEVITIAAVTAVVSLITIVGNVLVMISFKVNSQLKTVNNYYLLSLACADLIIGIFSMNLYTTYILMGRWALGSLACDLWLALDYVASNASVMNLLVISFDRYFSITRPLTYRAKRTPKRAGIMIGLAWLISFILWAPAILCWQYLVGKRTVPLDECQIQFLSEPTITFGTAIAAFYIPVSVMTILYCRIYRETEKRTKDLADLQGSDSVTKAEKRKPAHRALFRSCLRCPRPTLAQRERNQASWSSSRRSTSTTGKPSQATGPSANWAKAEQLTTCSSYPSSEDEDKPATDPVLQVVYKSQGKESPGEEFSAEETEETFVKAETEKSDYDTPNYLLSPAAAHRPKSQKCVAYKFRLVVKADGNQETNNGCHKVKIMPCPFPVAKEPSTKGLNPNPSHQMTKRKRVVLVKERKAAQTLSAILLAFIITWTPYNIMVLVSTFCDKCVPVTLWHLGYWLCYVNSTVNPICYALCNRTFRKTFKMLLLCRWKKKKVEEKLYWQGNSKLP
# Description: (§1) Cells were cultured as described previously by Randakova et al.[33]. […] The medium was supplemented with 5 mM butyrate for the last 24 h of culture to increase receptor expression. Cells were washed with (phosphate-buffered saline (PBS), mechanically harvested by scraper and centrifugated 1000 × g for 5 min. Cell pellets were kept at − 80 °C.
# (§2) Membranes were prepared as described previously by Randakova et al.[33]. Cells harvested from twenty 100 mm petri dishes (CHO) or 30 ml of cell suspension (Sf9) were suspended in 20 ml of ice-cold incubation medium (100 mM NaCl, 20 mM Na-HEPES, 10 mM MgCl2, pH 7.4) supplemented with 10 mM EDTA and homogenized on ice by two 30‐s strokes using a Polytron homogenizer (Ultra-Turrax; Janke & Kunkel GmbH & Co. KG, IKA-Labortechnik, Staufen, Germany) with a 30 s pause between strokes. Cell homogenates were centrifuged for 5 min at 1000×g to remove whole cells and cell nuclei. The resulting supernatants were centrifuged for 30 min at 30,000×g. Pellets were suspended in a fresh incubation medium, incubated on ice for 30 min, and centrifuged again. The resulting membrane pellets were kept at − 80 °C until assayed within 10 weeks.
# (§3) Non-specific binding was determined in the presence of 10 μM unlabelled atropine. Incubations were terminated by filtration through filtration plates multiscreen 96 well Harvest (Merck Millipore) using a Brandel cell harvester (Brandel, Gaithersburg, MD, USA). Filtration plates were dried in a microwave oven, and then 40 μl of liquid scintillator Rotiscint eco plus (Roth) was added. The filtration plates were counted in the Microbeta scintillation counter (PerkinElmer). […] The inhibition constant KI was calculated according to Eq. (2).
# (§4) Inhibition constants KI were calculated according to Eq. (2).2 KI=IC50/1+D/KD where IC50 is calculated according to Eq.
# M2 muscarinic receptor = target: T2, M2 muscarinic receptor (Homo sapiens, UniProt P08172); assay: [3H]NMS competition binding, membranes from CHO cells expressing M2
# T2 construct: membranes
# T2 sequence (P08172 1-466): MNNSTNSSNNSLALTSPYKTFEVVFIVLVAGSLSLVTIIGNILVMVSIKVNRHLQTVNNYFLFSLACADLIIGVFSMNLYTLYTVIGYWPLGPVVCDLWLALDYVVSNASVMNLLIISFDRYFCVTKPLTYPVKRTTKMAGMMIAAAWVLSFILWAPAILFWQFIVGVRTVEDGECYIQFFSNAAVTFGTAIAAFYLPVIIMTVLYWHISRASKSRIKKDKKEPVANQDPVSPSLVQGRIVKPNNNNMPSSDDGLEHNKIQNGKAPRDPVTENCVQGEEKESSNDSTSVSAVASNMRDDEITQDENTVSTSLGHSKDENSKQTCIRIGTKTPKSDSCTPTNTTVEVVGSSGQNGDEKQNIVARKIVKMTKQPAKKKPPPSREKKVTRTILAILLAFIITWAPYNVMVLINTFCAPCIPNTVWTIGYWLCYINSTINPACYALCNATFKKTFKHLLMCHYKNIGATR
# Description: as §1, §2, §3, §4
# M3 receptor = M3 receptor (Homo sapiens, UniProt P20309); assay: BRET real-time monitoring of G-protein activation via M3 in HEK293T/17 cells; type: cell-based; set-up: expressed in transfected cells; host or cells: HEK293T/17 cells, transient transfection; settings: for Activation of Gαq/11 types: saturating concentration (100 μM; 1 mM for JB-12-2, JB-13-1); for Response at Gα15: saturating concentration
# Description: HE/K293T17 cells were obtained from The Global Bioresource Center ATCC (Manassas, VA, USA). Cells were grown in 100 mm petri dishes in Dulbecco’s modified Eagle’s medium (DMEM) supplemented with 10% fetal bovine serum (FBS), MEM non-essential amino acids, 1 mM sodium pyruvate, and antibiotics (100 units/ml penicillin and 100 μg/ml streptomycin) at 37 °C in a humidified incubator containing 5% CO2[41]. Transfection was performed according to Masuho et al.[41]. […] Gα14 subunit was co-transfected with Ric-8A chaperone (0.21 μg). Cells were cotransfected with a pcDNA3.1 construct encoding the catalytic subunit of pertussis toxin (PTX-S1) (0.21 μg) and constructs encoding Gα15, Gα14, Gα11, Gαq to ensure that the small BRET signals were not contaminated by the possible recruitment of endogenous Gαi/o proteins. The empty vector pcDNA3.1 was used to normalize the amount of DNA in each transfection.
# To examine the activation of G-protein signalling in live cells, agonist-dependent cellular measurements of BRET between Venus-Gβ1γ2 and masGRK3ct-Nluc were performed as described by Masuho et al.[41]. […] Cells were harvested by centrifugation at 500×g for 5 min and were resuspended in BRET buffer. About 50,000 to 100,000 cells per well were distributed in 96-well flat-bottomed white microplates (Greiner Bio-One) in a volume of 25 µl. […] BRET measurements were made with a microplate reader (POLARstar Omega, BMG Labtech) equipped with two emission photomultiplier tubes, which enabled the detection of two emissions simultaneously with the highest possible resolution of 20 ms per data point. All measurements were performed at room temperature. […] The average baseline value (basal BRET ratio) recorded before stimulation of cells with an agonist was subtracted from the experimental BRET signal values to obtain the ΔBRET ratio.
# Sequence of M3 receptor (P20309 whole entry): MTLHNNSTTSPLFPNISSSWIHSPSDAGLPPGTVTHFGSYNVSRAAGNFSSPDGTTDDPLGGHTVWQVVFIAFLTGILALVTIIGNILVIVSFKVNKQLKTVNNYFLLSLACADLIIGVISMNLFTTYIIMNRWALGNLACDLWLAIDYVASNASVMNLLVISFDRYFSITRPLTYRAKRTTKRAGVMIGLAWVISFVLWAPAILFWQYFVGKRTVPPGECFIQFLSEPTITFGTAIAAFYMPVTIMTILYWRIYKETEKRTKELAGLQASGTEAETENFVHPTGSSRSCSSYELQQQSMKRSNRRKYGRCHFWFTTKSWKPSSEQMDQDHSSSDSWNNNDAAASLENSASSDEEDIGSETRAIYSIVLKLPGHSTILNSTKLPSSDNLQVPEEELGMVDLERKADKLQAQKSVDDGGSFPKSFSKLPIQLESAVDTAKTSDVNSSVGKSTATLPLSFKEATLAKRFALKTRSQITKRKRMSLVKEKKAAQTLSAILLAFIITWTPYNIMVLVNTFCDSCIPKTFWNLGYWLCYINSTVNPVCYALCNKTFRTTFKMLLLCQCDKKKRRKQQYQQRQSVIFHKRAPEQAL
structure (smiles),measurement,setting,value
c1csc(C[N+]23CCC(CC2)CC3)c1 [JB-8A],Ki,M5 muscarinic receptor,9.33 µM
same,Ki,M2 muscarinic receptor,3.24 µM
same,Activation of Gαq/11 types,M3 receptor,did not activate any Gαq/11 type
C[N+]1(Cc2cccs2)CCOCC1 [JB-12-2],Ki,M5 muscarinic receptor,112 µM
same,Ki,M2 muscarinic receptor,17.4 µM
same,Response at Gα15,M3 receptor,activated
same,Activation of Gαq/11 types,M3 receptor,activated all Gαq/11 types
COC(=O)C1=CCCN(Cc2cccs2)C1 [JB-13-1],Ki,"M5 muscarinic receptor; M5, competition with [3H]NMS, mean ± SD, three experiments, read-out: Binding affinity, negative logarithm of Ki (converted)",468 µM
same,Ki,"M2 muscarinic receptor; M2, competition with [3H]NMS, mean ± SD, three experiments, read-out: Binding affinity, negative logarithm of Ki (converted)",23.4 µM
same,Activation of Gαq/11 types,M3 receptor,did not activate any Gαq/11 type
"C[N+]1(Cc2cccs2)CC=CCC1 (stereo not drawn) [JR-6, 1-methyl-1-[(thiophen-2-yl)methyl]-1,2,3,6-tetra hydropyridin-1-ium]","Activation magnitude at Gq, % of CBC",M3 receptor; 100 μM,approximately 30%
same,Response at Gα14,M3 receptor; 100 μM,weak response
same,Response at Gα15,M3 receptor,no response
"C[N+]1(Cc2ccc(Cl)s2)CC=CCC1 (stereo not drawn) [PN-152, 1-[(5-chlorothiophen-2-yl)methyl]-1-methyl-1,2,3,6-tetrahydropyridin-1-ium]",Experimental binding affinity relative to JR-6,M2 muscarinic receptor; M2 (Table 1),ten-times higher
same,"Activation magnitude at Gq, % of CBC",M3 receptor; 100 μM,10%
